According to patent publication US20030208079A1, “Piperidinylaminomethyl trifluoromethyl cyclic ether compounds as substance P antagonists” (Pfizer Inc., priority 1997, published 2003):

Tested on: plasma protein extravasation in the ureter
Experiment: capsaicin-induced plasma extravasation test
Assay type: in vivo
Settings: 0.03 mg/kg, given orally 1 hour before capsaicin challenge, male guinea pigs
Experimental: In this test, anti-inflammatory activity is determined as the percent inhibition of plasma protein extravasation in the ureter of pentobarbital-anesthetized (25 mg/kg i.p.) male Hartey guinea pigs (weighing 300-350 g). Plasma extravasation is induced by intraperitoneal injection of capsaicin (30 μM in 0.1 BSA containing buffer, 10 ml/animal) into the animals, which are fasted overnight. The compounds of this invention were dissolved in 0.1% methyl cellulose-water and given orally 1 hour before capsaicin challenge. Evans blue dye (30 mg/kg) was administered intravenously 5 minutes before challenge. The animals were killed 10 minutes after capsaicin injection and both right and left ureter were removed. Tissue dye content was quantitated at 600 nm absorbance after overnight formamide extraction.

In the case of `COc1cc2c(cc1CN[C@H]1CCCN[C@H]1c1ccccc1)C(C)(C(F)(F)F)OCC2.Cl.Cl` (stereo partly drawn) [Example 3, (2S,3S)-3-(6-Methoxy-1-methyl-1-trifluoromethylisochroman-7-yl)methylamino-2-phenylpiperidine Dihydrochloride], the “percent inhibition of plasma protein extravasation” value was 98%.
